Consider 14 molecules from patent publication US20240116985A1, “STAPLED PEPTIDES AND METHODS THEREOF” (priority 2020, published 2024).

In this test the target is T1, full-length beta-Catenin (Uniprot ID P35222) (Homo sapiens, UniProt P35222).
T1 construct: 10 nM full-length beta-Catenin (Uniprot ID P35222)
T1 sequence (P35222 1-781): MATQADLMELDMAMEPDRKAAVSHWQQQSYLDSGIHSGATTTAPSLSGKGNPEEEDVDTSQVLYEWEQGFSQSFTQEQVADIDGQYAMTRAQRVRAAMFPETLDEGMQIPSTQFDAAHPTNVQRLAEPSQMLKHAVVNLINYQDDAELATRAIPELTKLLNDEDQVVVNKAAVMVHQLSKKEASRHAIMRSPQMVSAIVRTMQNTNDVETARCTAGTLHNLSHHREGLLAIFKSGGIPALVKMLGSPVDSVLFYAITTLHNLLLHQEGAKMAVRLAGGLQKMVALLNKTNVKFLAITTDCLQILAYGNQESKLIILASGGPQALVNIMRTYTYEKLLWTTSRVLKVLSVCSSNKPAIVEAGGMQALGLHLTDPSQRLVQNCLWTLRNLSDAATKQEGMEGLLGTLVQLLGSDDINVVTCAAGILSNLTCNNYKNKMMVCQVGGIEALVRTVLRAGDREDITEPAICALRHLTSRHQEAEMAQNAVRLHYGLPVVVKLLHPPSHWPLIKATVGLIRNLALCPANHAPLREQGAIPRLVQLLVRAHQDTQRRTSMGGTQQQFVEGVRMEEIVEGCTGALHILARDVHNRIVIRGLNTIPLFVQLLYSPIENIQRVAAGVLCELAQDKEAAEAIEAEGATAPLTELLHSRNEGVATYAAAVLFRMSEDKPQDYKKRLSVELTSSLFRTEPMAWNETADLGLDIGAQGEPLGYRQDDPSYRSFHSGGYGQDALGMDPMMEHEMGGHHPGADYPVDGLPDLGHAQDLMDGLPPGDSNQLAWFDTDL
The test can be described thus: Fluorescence polarization IC50 (beta-catenin / 5FAM-TCF4 10-53 competition). To be noted: fluorescence polarization; read-out: beta-Catenin FP IC50. It is filed as binding. For orientation: Fluorescence polarisation rises when a labelled molecule tumbles more slowly, as on binding a larger partner.
The term IC50 denotes the midpoint of a concentration-inhibition curve. In the case of `CC(=O)N1CCC[C@]12CC=CCCCC1(CCCC=CCCCOC(=O)N3CC[C@@](C(=O)N[C@@H](Cc4ccccc4)C(=O)N[C@@H](Cc4csc5ccccc45)C(=O)N[C@@H](CCO)C(N)=O)(C3)NC(=O)[C@H](CC(N)=O)NC(=O)[C@H](Cc3cccc(Cl)c3)NC(=O)[C@H](C)NC(=O)[C@H](CCCCNC(C)C)NC(=O)[C@H](CCC(N)=O)NC(=O)[C@H](CC(=O)O)NC1=O)NC(=O)[C@H](CC1CCCCC1)NC(=O)[C@H](CC(N)=O)NC2=O` (stereo partly drawn) [I-1924, Ac-PL3-Asn-Cha-B5-Asp-Gln-iPrLys-Ala-3C1F-Asn-PyrS2-Phe-BztA-Hse-NH2], the IC50 stood at 1610 nM.
The value for `CC(=O)N1CCC[C@]12CC=CCCCC1(CCCC=CCCCOC(=O)N3CC[C@@](C(=O)N[C@@H](Cc4ccccc4)C(=O)N[C@@H](Cc4csc5ccccc45)C(=O)N[C@@H](CCO)C(N)=O)(C3)NC(=O)[C@H](CC(N)=O)NC(=O)[C@H](Cc3cccc(C(N)=O)c3)NC(=O)[C@H](C)NC(=O)[C@H](CCCCNC(C)C)NC(=O)[C@H](CCC(N)=O)NC(=O)[C@H](CC(=O)O)NC1=O)NC(=O)[C@H](CC1CCCCC1)NC(=O)[C@H](CC(N)=O)NC2=O` (stereo partly drawn) [I-1925, Ac-PL3-Asn-Cha-B5-Asp-Gln-iPrLys-Ala-3cbmf-Asn-PyrS2-Phe-BztA-Hse-NH2] was 475 nM; that for `COc1cccc(C[C@@H]2NC(=O)[C@H](C)NC(=O)[C@H](CCCCNC(C)C)NC(=O)[C@H](CCC(N)=O)NC(=O)[C@H](CC(=O)O)NC(=O)C3(CCCC=CCCCOC(=O)N4CC[C@@](C(=O)N[C@@H](Cc5ccccc5)C(=O)N[C@@H](Cc5csc6ccccc56)C(=O)N[C@@H](CCO)C(N)=O)(C4)NC(=O)[C@H](CC(N)=O)NC2=O)CCCC=CC[C@]2(CCCN2C(C)=O)C(=O)N[C@@H](CC(N)=O)C(=O)N[C@@H](CC2CCCCC2)C(=O)N3)c1` (stereo partly drawn) [I-1926, Ac-PL3-Asn-Cha-B5-Asp-Gln-iPrLys-Ala-3OMeF-Asn-PyrS2-Phe-BztA-Hse-NH2] was 417 nM.
As for `CC(=O)N1CCC[C@]12CC=CCCCC1(CCCC=CCCCOC(=O)N3CC[C@@](C(=O)N[C@@H](Cc4cccnc4)C(=O)N[C@@H](Cc4csc5ccccc45)C(=O)N[C@@H](CCO)C(N)=O)(C3)NC(=O)[C@H](CC(N)=O)NC(=O)[C@H](Cc3ccccc3)NC(=O)[C@H](C)NC(=O)[C@H](CCCCNC(C)C)NC(=O)[C@H](CCC(N)=O)NC(=O)[C@H](CC(=O)O)NC1=O)NC(=O)[C@H](CC1CCCCC1)NC(=O)[C@H](CC(N)=O)NC2=O` (stereo partly drawn) [I-1927, Ac-PL3-Asn-Cha-B5-Asp-Gln-iPrLys-Ala-Phe-Asn-PyrS2-3PyrA-BztA-Hse-NH2], the IC50 amounted to 5140 nM.
Take `CC(=O)N1CCC[C@]12CC=CCCCC1(CCCC=CCCCOC(=O)N3CC[C@@](C(=O)N[C@@H](Cc4cccc(Cl)c4)C(=O)N[C@@H](Cc4csc5ccccc45)C(=O)N[C@@H](CCO)C(N)=O)(C3)NC(=O)[C@H](CC(N)=O)NC(=O)[C@H](Cc3ccccc3)NC(=O)[C@H](C)NC(=O)[C@H](CCCCNC(C)C)NC(=O)[C@H](CCC(N)=O)NC(=O)[C@H](CC(=O)O)NC1=O)NC(=O)[C@H](CC1CCCCC1)NC(=O)[C@H](CC(N)=O)NC2=O` (stereo partly drawn) [I-1928, Ac-PL3-Asn-Cha-B5-Asp-Gln-iPrLys-Ala-Phe-Asn-PyrS2-3C1F-BztA-Hse-NH2]: the IC50 came out at 887 nM.
The value for `COc1cccc(C[C@H](NC(=O)[C@]23CCN(C2)C(=O)OCCCC=CCCCC2(CCCC=CC[C@]4(CCCN4C(C)=O)C(=O)N[C@@H](CC(N)=O)C(=O)N[C@@H](CC4CCCCC4)C(=O)N2)C(=O)N[C@@H](CC(=O)O)C(=O)N[C@@H](CCC(N)=O)C(=O)N[C@@H](CCCCNC(C)C)C(=O)N[C@@H](C)C(=O)N[C@@H](Cc2ccccc2)C(=O)N[C@@H](CC(N)=O)C(=O)N3)C(=O)N[C@@H](Cc2csc3ccccc23)C(=O)N[C@@H](CCO)C(N)=O)c1` (stereo partly drawn) [I-1930, Ac-PL3-Asn-Cha-B5-Asp-Gln-iPrLys-Ala-Phe-Asn-PyrS2-3OMeF-BztA-Hse-NH2] was 1560 nM; that for `CC(=O)N1CCC[C@]12CC=CCCCC1(CCCC=CCCCOC(=O)N3CC[C@@](C(=O)N[C@@H](Cc4ccccc4)C(=O)N[C@@H](Cc4csc5ccccc45)C(=O)N[C@@H](CCO)C(N)=O)(C3)NC(=O)[C@H](CC(N)=O)NC(=O)[C@H](Cc3ccccc3)NC(=O)[C@H](CO)NC(=O)[C@H](CCCCNC(C)C)NC(=O)[C@H](CCC(N)=O)NC(=O)[C@H](CC(=O)O)NC1=O)NC(=O)[C@H](CC1CCCCC1)NC(=O)[C@H](CC(N)=O)NC2=O` (stereo partly drawn) [I-1931, Ac-PL3-Asn-Cha-B5-Asp-Gln-iPrLys-Ser-Phe-Asn-PyrS2-Phe-BztA-Hse-NH2] was 1560 nM.
The value for `CC(=O)N1CCC[C@]12CC=CCCCC1(CCCC=CCCCOC(=O)N3CC[C@@](C(=O)N[C@@H](Cc4ccccc4)C(=O)N[C@@H](Cc4csc5ccccc45)C(=O)N[C@@H](CCO)C(N)=O)(C3)NC(=O)[C@H](CC(N)=O)NC(=O)[C@H](Cc3ccccc3)NC(=O)[C@H](C)NC(=O)[C@H](CCCCNC(C)C)NC(=O)[C@H](CCC(N)=O)NC(=O)[C@H](CC(=O)O)NC1=O)NC(=O)[C@H](CC1CCCCC1)NC(=O)[C@H](CCO)NC2=O` (stereo partly drawn) [I-1932, Ac-PL3-Hse-Cha-B5-Asp-Gln-iPrLys-Ala-Phe-Asn-PyrS2-Phe-BztA-Hse-NH2] was 285 nM; that for `CC(=O)N1CCC[C@]12CC=CCCCC1(CCCC=CCCCOC(=O)N3CC[C@@](C(=O)N[C@@H](Cc4ccccc4)C(=O)N[C@@H](Cc4csc5ccccc45)C(=O)N[C@@H](CCO)C(N)=O)(C3)NC(=O)[C@H](CC(N)=O)NC(=O)[C@H](Cc3ccccc3)NC(=O)[C@H](C)NC(=O)[C@H](CCCCNC(C)C)NC(=O)[C@H](CCO)NC(=O)[C@H](CC(=O)O)NC1=O)NC(=O)[C@H](CC1CCCCC1)NC(=O)[C@H](CC(N)=O)NC2=O` (stereo partly drawn) [I-1933, Ac-PL3-Asn-Cha-B5-Asp-Hse-iPrLys-Ala-Phe-Asn-PyrS2-Phe-BztA-Hse-NH2] was 154 nM.
As for `CC(=O)N1CCC[C@]12CC=CCCCC1(CCCC=CCCCOC(=O)N3CC[C@@](C(=O)N[C@@H](Cc4ccsc4)C(=O)N[C@@H](Cc4csc5ccccc45)C(=O)N[C@@H](CCC(N)=O)C(N)=O)(C3)NC(=O)[C@H](CCC(=O)N3CCn4cncc4C3)NC(=O)[C@H](Cc3ccccc3)NC(=O)[C@H](C)NC(=O)[C@H](C)NC(=O)[C@H](CN(CC(=O)O)CC(F)(F)F)NC(=O)[C@H](CC(=O)O)NC1=O)NC(=O)[C@H](CC(C)(C)C)NC(=O)[C@H](CC(=O)O)NC2=O` (stereo partly drawn) [I-1934, Ac-PL3-Asp-Npg-B5-Asp-TfeGA-Ala-Ala-Phe-[H4IAP]GlnR-PyrS2-3Thi-BztA-Gln-NH2], the IC50 turned out to be 5 nM.
Turning to `CC(=O)N1CCC[C@]12CC=CCCCC1(CCCC=CCCCOC(=O)N3CC[C@@](C(=O)N[C@@H](Cc4ccsc4)C(=O)N[C@@H](Cc4csc5ccccc45)C(=O)N[C@@H](CCC(N)=O)C(N)=O)(C3)NC(=O)[C@H](CCC(=O)N3CCC(N4CCN(C)CC4)CC3)NC(=O)[C@H](Cc3ccccc3)NC(=O)[C@H](C)NC(=O)[C@H](C)NC(=O)[C@H](CN(CC(=O)O)CC(F)(F)F)NC(=O)[C@H](CC(=O)O)NC1=O)NC(=O)[C@H](CC(C)(C)C)NC(=O)[C@H](CC(=O)O)NC2=O` (stereo partly drawn) [I-1937, Ac-PL3-Asp-Npg-B5-Asp-TfeGA-Ala-Ala-Phe-[4MePpzPip]GlnR-PyrS2-3Thi-BztA-Gln-NH2], the IC50 was determined as 9 nM.
Consider `CC(=O)N1CCC[C@]12CC=CCCCC1(CCCC=CCCCOC(=O)N3CC[C@@](C(=O)N[C@@H](Cc4ccsc4)C(=O)N[C@@H](Cc4csc5ccccc45)C(=O)N[C@@H](CCC(N)=O)C(N)=O)(C3)NC(=O)[C@H](CC(C)C)NC(=O)[C@H](Cc3ccccc3)NC(=O)[C@H](C)NC(=O)[C@H](C)NC(=O)[C@H](CC(=O)O)NC(=O)[C@H](CC(=O)S)NC1=O)NC(=O)[C@H](CC(C)(C)C)NC(=O)[C@H](CC(=O)O)NC2=O` (stereo partly drawn) [I-1944, Ac-PL3-Asp-Npg-B5-AspSH-Asp-Ala-Ala-Phe-Leu-PyrS2-3Thi-BztA-Gln-NH2], for which the IC50 came to 1630 nM.
As to `CC(=O)N1CCC[C@]12CC=CCCCC1(CCCC=CCCCOC(=O)N3CC[C@@](C(=O)N[C@@H](Cc4ccsc4)C(=O)N[C@@H](Cc4csc5ccccc45)C(=O)N[C@@H](CCC(N)=O)C(N)=O)(C3)NC(=O)[C@H](CC(C)C)NC(=O)[C@H](Cc3ccccc3)NC(=O)[C@H](C)NC(=O)[C@H](C)NC(=O)[C@H](CC(=O)O)NC(=O)[C@H](CC(=O)S)NC1=O)NC(=O)[C@H](CC(C)(C)C)NC(=O)[C@H](CC(=O)O)NC2=O` (stereo partly drawn) [I-1945, Ac-PL3-Asp-Npg-B5-AspSH-Asp-Ala-Ala-Phe-Leu-PyrS2-3Thi-BztA-Gln-NH2], the IC50 is 918 nM.
Under `CC(=O)N1CCC[C@]12CC=CCCCC1(CCCC=CCCCOC(=O)N3CC[C@@](C(=O)N[C@@H](Cc4ccsc4)C(=O)N[C@@H](Cc4csc5ccccc45)C(=O)N[C@@H](CCC(N)=O)C(N)=O)(C3)NC(=O)[C@H](CC(C)C)NC(=O)[C@H](Cc3ccccc3)NC(=O)[C@H](C)NC(=O)[C@H](C)NC(=O)[C@H](CC(=O)S)NC(=O)[C@H](CC(=O)O)NC1=O)NC(=O)[C@H](CC(C)(C)C)NC(=O)[C@H](CC(=O)O)NC2=O` (stereo partly drawn) [I-1946, Ac-PL3-Asp-Npg-B5-Asp-AspSH-Ala-Ala-Phe-Leu-PyrS2-3Thi-BztA-Gln-NH2] stands 874 nM.
